Among the test systems are OVCAR-8 ovarian; HCT-116 colon; 786-0 renal; CAKI-1 renal; SN12C renal; RPMI-8226 leukemia; DU-145 prostate; HT29 colon; SK-MEL-28 melanoma; OVCAR-5 ovarian; SK-MEL-2 melanoma; U251 CNS.
Holding throughout (assay): inhibition of tumour cell growth, NCI panel, 48 h

Experimental findings from PubChem BioAssay (NCI) are described below.

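Protocol summary: plate cells (96-well), add compound at 5 concentrations, incubate 48 h, interpolate endpoints linearly. The concentration for 50% growth inhibition is given as GI50. TGI marks complete inhibition of growth.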

In the case of `CC1=NC(=Cc2cccc(Cl)c2)C(=O)N1n1c(-c2ccccc2)nc2ccccc2c1=O`, the TGI in the assay with OVCAR-8 ovarian was more than 100 µM; with HCT-116 colon, more than 100 µM; with 786-0 renal, more than 100 µM; with CAKI-1 renal, 87.6 µM; in the assay on SN12C renal, more than 100 µM; with RPMI-8226 leukemia, more than 100 µM. The TGI in the assay with DU-145 prostate was more than 100 µM; in the assay with HT29 colon, 94.8 µM.

With `COc1c(F)c(F)c(/C(O)=C\c2nc3ccccc3[nH]c2=O)c(F)c1F`, the TGI in the assay with OVCAR-8 ovarian was more than 10 µM; with SK-MEL-28 melanoma, more than 10 µM; with 786-0 renal, 5.99 µM; in the assay with CAKI-1 renal, more than 10 µM; in the assay with SN12C renal, more than 10 µM; in the assay on RPMI-8226 leukemia, more than 10 µM. Besides, the TGI in the assay on DU-145 prostate and in the assay with HT29 colon was more than 10 µM each time.

`Cc1ccccc1-n1c(=O)c2ncn(C3CCCO3)c2n(-c2ccccc2C)c1=S` (stereo unspecified): the TGI with OVCAR-8 ovarian, with HCT-116 colon, in the assay with 786-0 renal, in the assay on CAKI-1 renal, with SN12C renal and in the assay on RPMI-8226 leukemia was more than 100 µM each time. The TGI in the assay on OVCAR-5 ovarian, in the assay with SK-MEL-2 melanoma, in the assay on DU-145 prostate and in the assay on HT29 colon was more than 100 µM each time.

`C[n+]1ccc(/C2=C3\C=CC(=N3)/C(c3cc[n+](C)cc3)=c3/cc/c([nH]3)=C(\c3cc[n+](C)cc3)C3=N/C(=C(/c4cc[n+](C)cc4)C4C=CC2N4)C=C3)cc1`: the TGI in the assay with OVCAR-8 ovarian, in the assay with SK-MEL-28 melanoma, in the assay on HCT-116 colon, in the assay on 786-0 renal, with CAKI-1 renal and in the assay on SN12C renal was more than 100 µM in each case. In addition, the TGI in the assay on RPMI-8226 leukemia is more than 100 µM; in the assay on OVCAR-5 ovarian, more than 100 µM; in the assay with U251 CNS, more than 32.2 µM; in the assay with DU-145 prostate it was more than 100 µM; with HT29 colon, more than 100 µM.

Regarding `c1ccc2c(c1)C1CCCCCC21N1CCOCC1` (stereo unspecified), the TGI with OVCAR-8 ovarian, in the assay on SK-MEL-28 melanoma, in the assay with HCT-116 colon, with 786-0 renal, in the assay on CAKI-1 renal and in the assay with SN12C renal was more than 100 µM in each case. In addition, the TGI with OVCAR-5 ovarian, in the assay on U251 CNS, with SK-MEL-2 melanoma and in the assay with HT29 colon was more than 100 µM throughout.

`CC1CC(C)C(C#N)N(C)c2ccccc21` (stereo unspecified): the TGI in the assay on OVCAR-8 ovarian, in the assay with SK-MEL-28 melanoma, in the assay with HCT-116 colon, in the assay on 786-0 renal, in the assay with CAKI-1 renal and with SN12C renal was more than 100 µM throughout. The TGI in the assay with RPMI-8226 leukemia, with OVCAR-5 ovarian, in the assay with SK-MEL-2 melanoma, in the assay on DU-145 prostate and in the assay on HT29 colon was more than 100 µM throughout.

Take `CO/N=C(/C)c1ccc(NC(=O)CSc2nnc(-c3ccncc3)n2-c2ccccc2)cc1`: the GI50 in the assay with SK-MEL-28 melanoma was more than 100 µM; in the assay with HCT-116 colon, 3.43 µM; in the assay on RPMI-8226 leukemia, more than 100 µM; with OVCAR-5 ovarian it was more than 100 µM; in the assay on U251 CNS, 3.22 µM; in the assay with SK-MEL-2 melanoma it was 11.1 µM. For the same compound, the GI50 in the assay with HT29 colon was more than 100 µM. In addition, the TGI with SK-MEL-28 melanoma was more than 100 µM; in the assay with HCT-116 colon it was more than 100 µM; with RPMI-8226 leukemia it was more than 100 µM; in the assay with OVCAR-5 ovarian, more than 100 µM; in the assay with U251 CNS, more than 100 µM; with SK-MEL-2 melanoma it was 55.1 µM. The same compound gave a TGI with HT29 colon of more than 100 µM.

Take `COc1cccc(NC(=O)CSc2nnc(-c3ccc(NC(C)=O)cc3)o2)c1`: the TGI with OVCAR-8 ovarian, in the assay on SK-MEL-28 melanoma, in the assay with HCT-116 colon, with 786-0 renal, with CAKI-1 renal and with SN12C renal was more than 100 µM throughout. Further, the TGI in the assay on RPMI-8226 leukemia, in the assay on OVCAR-5 ovarian, in the assay on U251 CNS, with SK-MEL-2 melanoma and with HT29 colon was more than 100 µM in each case.

`NC(N)=NCCCC(NC(=O)c1cccc2c(=O)c3ccccc3[nH]c12)C(=O)O` (stereo unspecified): the TGI with OVCAR-8 ovarian, in the assay on SK-MEL-28 melanoma, in the assay on HCT-116 colon, in the assay with 786-0 renal, in the assay with SN12C renal and with RPMI-8226 leukemia was more than 100 µM throughout. Also, the TGI in the assay with OVCAR-5 ovarian, in the assay with U251 CNS, with SK-MEL-2 melanoma, in the assay with DU-145 prostate and with HT29 colon was more than 100 µM throughout.

In the case of `C/C=C1\CN2CCc3c([nH]c4ccccc34)C2CC1C(=O)OC` (stereo unspecified), the TGI in the assay on OVCAR-8 ovarian, in the assay with SK-MEL-28 melanoma, with HCT-116 colon, with 786-0 renal, in the assay on CAKI-1 renal and with SN12C renal was more than 322 µM in each case. The TGI with RPMI-8226 leukemia, in the assay with OVCAR-5 ovarian, with U251 CNS, with SK-MEL-2 melanoma and with HT29 colon was more than 322 µM each time.

For `O=C(CCl)NNC1=Nc2ccc(Cl)cc2SC1`, the TGI with OVCAR-8 ovarian amounted to 2.02 µM; in the assay with SK-MEL-28 melanoma, 3.92 µM; with HCT-116 colon it was 3.2 µM; in the assay on SN12C renal, 4.07 µM; in the assay with RPMI-8226 leukemia it was 5.01 µM; in the assay with OVCAR-5 ovarian, 4.16 µM. In addition, the figures for the TGI in the assay on U251 CNS, in the assay with SK-MEL-2 melanoma and in the assay on HT29 colon were 4.28 µM, 14 µM and 3.4 µM, respectively.

Consider `CC1(C)C=Cc2c(cc(O)c3c(=O)c4cc(Cl)ccc4[nH]c23)O1`, for which the TGI with OVCAR-8 ovarian, in the assay on SK-MEL-28 melanoma, in the assay on HCT-116 colon, with 786-0 renal, in the assay on CAKI-1 renal and in the assay with SN12C renal was more than 10 µM in each case. Besides, the TGI in the assay on RPMI-8226 leukemia was 6.27 µM; in the assay on OVCAR-5 ovarian it was 6.16 µM; with U251 CNS, more than 10 µM; with SK-MEL-2 melanoma it was 9.75 µM; with HT29 colon, more than 10 µM.

Turning to `O=C(O)c1ccc(C2COc3ccc(Cl)cc3C2)cc1` (stereo unspecified), the TGI in the assay with OVCAR-8 ovarian, in the assay on SK-MEL-28 melanoma, in the assay with HCT-116 colon, in the assay on 786-0 renal, in the assay on CAKI-1 renal and with SN12C renal was more than 100 µM each time. The TGI with RPMI-8226 leukemia, with OVCAR-5 ovarian, with U251 CNS, in the assay with SK-MEL-2 melanoma and in the assay on HT29 colon was more than 100 µM each time.
